Reference: patent publication US20250170237A1, “MURAMYL DIPEPTIDES AND PROCESS FOR PREPARATION THEREOF” (priority 2022, published 2025)

What was measured:
[1] = test system: cytokines IL-1, IL-2, IL-4, IFN, IL-6, IL-10, IL-12, TNF; assay: Post JEV immunization In vivo cytokine assay; parameters: species or system BALB/c mice
Experimental: (§1) ELISA was carried out by Bio Legend capture and detection antibodies. Briefly, 96-well plates were coated with capture antibody dissolved in coating buffer per well incubated overnight at 4° C. Wells were blocked with BSA for 1 h at RT. After blocking, 50 μL/well of serum was added and incubated for 3 h. After washing, Biotinylated secondary antibody was added along with enzyme. Plates were incubated for 1 h at RT. Then plates were washed and TMB substrate solution was added. The reaction was stopped after 30 min with a stopping solution. Absorbance was measured at 450 nm with a plate reader.

[2] = test system: cytokines IFN, IL-1, IL-4, IL-6, IL-10; assay: Post HBsAg immunization In vivo cytokine assay; parameters: species or system BALB/c mice
Experimental: as §1

CD4, CD8 [3] = assay: Post JEV immunization Immunophenotyping; format: in vivo, BALB/c mice
Experimental: (§2) Staining for extracellular markers Staining was as per the manufacturer's protocol and run on a BD FACS Verse flow cytometer. Compensation was established using BD Biosciences compensation beads. Post-acquisition flow cytometry analysis was performed using FACS Suite software.

[4] = test system: antigens (OVA, HBsAg, DENV and JEV); assay: Serum anti-antigens (OVA, HBsAg, DENV and JEV) IgG titer, overall statements; format: in vivo, BALB/c mice; conditions: 15b against Ovalbumin, DEV, 15f against JEV
Experimental: (§3) Adjuvanticity of 15b was evaluated using antigens (OVA, HBsAg, DENV and JEV) in BALB/c mice model—From the immunized mice retro-orbital sampling or retro-orbital blood was collected on 14th and 28th day before sacrifice. Serum was separated by centrifugation at 12,500 rpm for 5 min. Transferred to a clean centrifuge tube and store at −80 until used.
(§4) The plates were coated with antigen in carbonate buffer. Plates were incubated at 4° C. overnight. They were then washed 3 times with PBS/Tween, and non-specific binding sites were blocked by adding 200 μl of blocking solution. Plates were incubated at room temperature for 1 h. Then 3 times wash is done, diluted standards and samples to desired concentrations in blocking solution were added to the plates. Incubate at 37° C. for 1 h or at 4° C. overnight. Plates were washed 3 times with PBS/Tween. Avidin-Horseradish Peroxidase (Av-HRP) was diluted and added. Incubated at room temperature for 30 min. Plates were washed 3 times with PBS/Tween. OPD Substrate was added and plates were incubated at room temperature (4-30 min) for colour development. The colour reaction was stopped by adding 50 μl of stop solution. Optical density (OD) was read at 492 nm.

In vitro Hemolysis assay = conditions: for toxicity and hemolysis, conclusion in words: even at higher concentrations
JEV antigen = assay: IgG titer with JEV antigen; format: in vivo, BALB/c mice
Experimental: as §3, §4

OVA antigen = assay: IgG titer with OVA antigen (indirect ELISA, immunized mice); format: in vivo, BALB/c mice
Experimental: as §3, §4

CD4, CD8 [5] = assay: Post HBsAg immunization Immunophenotyping; format: in vivo, BALB/c mice
Experimental: as §2

HBsAg antigen = assay: IgG titer with HBsAg antigen; format: in vivo, BALB/c mice
Experimental: as §3, §4

[6] = test system: CD4, CD8, CD19, CD80, CD 28; assay: Post Denv immunization Immunophenotyping; format: in vivo, BALB/c mice
Experimental: as §2

splenocytes = assay: Post JEV immunization In vivo splenocyte proliferation assay; parameters: species or system BALB/c mice
Experimental: Splenocytes were seeded into 96-well flat-bottom microtiter plates having 1×10^5 cells/well in […] complete RPMI-1640 medium. Plates were incubated at 37° C. with 5% CO2. After 48 h, […] MTT solution (5 mg/mL) was added to each well and left to incubate for next 4 h. Untransformed MTT ([…]) was removed from each well by pipetting. A total of […] of DMSO was added and the absorbance was evaluated in an ELISA reader at 630 nm on the multimode reader (Infinite 200 Pro, Switzerland) after 15 min

[7] = dose 10 μg, UT = 100 (Table 15)

Which results are given for `C[C@H](NC(=O)[C@@H](C)O[C@H]1[C@H](O)[C@@H](CO)OC(O)[C@@H]1NC(=O)C1CC1)C(=O)N[C@H](CCC(=O)O)C(N)=O` (stereo partly drawn) [15b, (4R)-5-amino-4-((2S)-2-((2R)-2-(((3R,4R, 5S, 6R)-3-(cyclopropanecarboxamido)-2,5-dihydroxy-6-(hydroxymethyl)tetrahydro-2H-pyran-4-yl)oxy)propanamido)propanamido)-5-oxopentanoic acid]?
IFN ([1]; dose 1 μg (Table 14)): 4.21 to 6.37 pg/mL; IL-2 ([1]; dose 1 μg (Table 14)): 13.77 to 19.81 pg/mL; IL-6 ([1]; dose 1 μg (Table 14)): 157.05 to 160.47 pg/mL; IL-10 ([1]; dose 1 μg (Table 14)): 48 to 51.02 pg/mL; IFN ([1]; dose 10 μg (Table 14)): 11.03 to 13.05 pg/mL; IL-1 ([1]; dose 10 μg (Table 14)): 61.9 to 67.25 pg/mL; IL-2 ([1]; dose 10 μg (Table 14)): 12.17 to 15.34 pg/mL; IL-6 ([1]; dose 10 μg (Table 14)): 233.3 to 245.27 pg/mL; IL-10 ([1]; dose 10 μg (Table 14)): 52.3 to 54.28 pg/mL; IFN ([1]; dose 100 μg (Table 14)): 3.06 to 6.48 pg/mL; IL-1 ([1]; dose 100 μg (Table 14)): 70.1 to 73.48 pg/mL; IL-2 ([1]; dose 100 μg (Table 14)): 23.97 to 27.45 pg/mL; IL-6 ([1]; dose 100 μg (Table 14)): 279.85 to 281.47 pg/mL; IL-10 ([1]; dose 100 μg (Table 14)): 57.5 to 59.48 pg/mL; IFN ([2]; dose 1 μg): 80.6 pg/mL; IFN ([2]; dose 10 μg): 75.07 pg/mL; IFN ([2]; dose 100 μg): 68.6 pg/mL; CD4 (CD4, CD8 [3]; dose 1 μG): 39.75-42.58; CD8 (CD4, CD8 [3]; dose 1 μG): 14.56-19.54; CD4 (CD4, CD8 [3]; dose 10 μG): 41.86-43.28; CD8 (CD4, CD8 [3]; dose 10 μG): 14.78-17.25; antibody titer, conclusion in words [4]: significant antibody titer; % Hemolysis (In vitro Hemolysis assay; erythrocytes (red blood cells)): 2.302 ± 0.147%; toxicity and hemolysis, conclusion in words (In vitro Hemolysis assay): non-toxic and non-hemolytic; IgG titer with JEV antigen (JEV antigen; dose 1 μg (Table 13)): 64000-128000; IgG titer with JEV antigen (JEV antigen; dose 10 μg (Table 13)): 8000-16000; IgG titer with JEV antigen (JEV antigen; dose 100 μg (Table 13)): 40000-80000; IgG titer with OVA antigen (OVA antigen; dose 1 μg): 1600-124000; IgG titer with OVA antigen (OVA antigen; dose 10 μg): 204800-416000; IgG titer with OVA antigen (OVA antigen; dose 100 μg): 115000-320000; CD4 (CD4, CD8 [5]; dose 1 μG): 24.48-29.48; CD8 (CD4, CD8 [5]; dose 1 μG): 12.71-19.48; CD4 (CD4, CD8 [5]; dose 10 μG): 25.47-29.48; CD8 (CD4, CD8 [5]; dose 10 μG): 12.67-18.54; IgG titer with HBsAg antigen (HBsAg antigen; dose 1 μg): 51200-102400; IgG titer with HBsAg antigen (HBsAg antigen; dose 10 μg): 102400-240000; CD4 ([6]; dose 1 μG): 36.26-41.8; CD8 ([6]; dose 1 μG): 22.26-29.48; CD19 ([6]; dose 1 μG): 30.57-35.48; CD 28 ([6]; dose 1 μG): 3.65-7.48; CD80 ([6]; dose 1 μG): 6.3-8.4; CD4 ([6]; dose 10 μG): 38.74-43.84; CD8 ([6]; dose 10 μG): 22.92-27.84; CD19 ([6]; dose 10 μG): 36.19-41.28; CD 28 ([6]; dose 10 μG): 3.68-8.41; CD80 ([6]; dose 10 μG): 6.11-11.4; Splenocyte proliferation, Con A (splenocytes; dose 1 μg, UT = 100 (Table 15)): 117.5-119.48; Splenocyte proliferation, LPS (splenocytes; dose 1 μg, UT = 100 (Table 15)): 118.2-120.01; Splenocyte proliferation, Normal (splenocytes; dose 1 μg, UT = 100 (Table 15)): 118.6-120.48; Splenocyte proliferation, Restimulated (splenocytes; dose 1 μg, UT = 100 (Table 15)): 116.5-119.27; Splenocyte proliferation, Con A (splenocytes; [7]): 124.55-126.85; Splenocyte proliferation, LPS (splenocytes; [7]): 104.6-109.57; Splenocyte proliferation, Normal (splenocytes; [7]): 111.38-115.78; Splenocyte proliferation, Restimulated (splenocytes; [7]): 114.2-117.24

What does the source list for `CCCCCCCCCCCCCC(=O)OCCCCCCCC(=O)N[C@H]1C(O)O[C@H](CO)[C@@H](O)[C@@H]1O[C@H](C)C(=O)N[C@@H](C)C(=O)N[C@H](CCC(=O)O)C(N)=O` (stereo partly drawn) [15f, (4R)-5-amino-4-((2S)-2-((2R)-2-(((3R,4R,5S,6R)-2,5-dihydroxy-6-(hydroxymethyl)-3-(8-(tetradecanoyloxy)octanamido)tetrahydro-2H-pyran-4-yl)oxy)propanamido)propanamido)-5-oxopentanoic acid]?
TNF ([1]; dose 5 μG (Table 24)): 624 to 654 pg/mL; IL-1 ([1]; dose 5 μG (Tables 22, 24)): 745 to 845 pg/mL; IL-2 ([1]; dose 5 μG (Tables 22, 24)): 41 to 52 pg/mL; IL-4 ([1]; dose 5 μG (Tables 22, 24)): 134 to 155 pg/mL; IL-10 ([1]; dose 5 μG (Tables 22, 24)): 243 to 294 pg/mL; IL-12 ([1]; dose 5 μG (Tables 22, 24)): 124 to 147 pg/mL; TNF ([1]; dose 20 μG (Table 24)): 898 to 942 pg/mL; IL-1 ([1]; dose 20 μG (Tables 22, 24)): 1059 to 1124 pg/mL; IL-2 ([1]; dose 20 μG (Tables 22, 24)): 52 to 64 pg/mL; IL-4 ([1]; dose 20 μG (Tables 22, 24)): 138 to 146 pg/mL; IL-10 ([1]; dose 20 μG (Tables 22, 24)): 398 to 421 pg/mL; IL-12 ([1]; dose 20 μG (Tables 22, 24)): 175 to 194 pg/mL; TNF ([1]; dose 50 μG (Table 24)): 1024 to 1124 pg/mL; IL-1 ([1]; dose 50 μG (Tables 22, 24)): 1487 to 1634 pg/mL; IL-2 ([1]; dose 50 μG (Tables 22, 24)): 69 to 76 pg/mL; IL-4 ([1]; dose 50 μG (Tables 22, 24)): 148 to 164 pg/mL; IL-10 ([1]; dose 50 μG (Tables 22, 24)): 424 to 487 pg/mL; IL-12 ([1]; dose 50 μG (Tables 22, 24)): 136 to 147 pg/mL; antibody titer, conclusion in words [4]: significant antibody titer; toxicity and hemolysis, conclusion in words (In vitro Hemolysis assay): non-toxic and non-hemolytic; IgG titer with JEV antigen (JEV antigen; dose 5 μG (Table 21)): 80000-160000; IgG titer with JEV antigen (JEV antigen; dose 20 μG (Table 21)): 160000-640000; IgG titer with JEV antigen (JEV antigen; dose 50 μG (Table 21)): 640000-9560000; IgG titer with OVA antigen (OVA antigen; dose 1 μg): 8000-25400; IgG titer with OVA antigen (OVA antigen; dose 10 μg): 5000-41600; IgG titer with OVA antigen (OVA antigen; dose 100 μg): 200000-960000; Splenocyte proliferation, Con A (splenocytes; dose 5 μG (Table 25)): 125-141; Splenocyte proliferation, JEV (splenocytes; dose 5 μG (Table 25)): 139-147; Splenocyte proliferation, LPS (splenocytes; dose 5 μG (Table 25)): 124-134; Splenocyte proliferation, Con A (splenocytes; dose 20 μG (Table 25)): 134-142; Splenocyte proliferation, JEV (splenocytes; dose 20 μG (Table 25)): 149-162; Splenocyte proliferation, LPS (splenocytes; dose 20 μG (Table 25)): 128-137; Splenocyte proliferation, Con A (splenocytes; dose 50 μG (Table 25)): 245-264; Splenocyte proliferation, LPS (splenocytes; dose 50 μG (Table 25)): 184-192
